Tested on: 521955-158-R2-J5-PDC complex spheroid viability
Experiment: Anticancer human tumor 521955-158-R2-J5-PDC patient-derived pancreatic carcinoma cell line growth inhibition [GQUAD]
Conditions: for IC50: curve of first compound; for viability, T/C: stronger effect = lower value; active = viability on the fitted dose curve at most 10% of control; inactive = the rest
Procedure, shortened: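 Multi-cell-type spheroids of tumor cells with HUVEC and mesenchymal stem cells, treated with drug combinations. Concentrations descend in half-log steps from near clinical Cmax, or from 10 microM where Cmax is unknown; viability read-out.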

[1] = second compound 0.0316 µM, first compound 0.0316 µM
[2] = second compound 0.0316 µM, first compound 0.1 µM
[3] = second compound 0.0316 µM, first compound 0.316 µM
[4] = second compound 0.0316 µM, first compound 1 µM
[5] = second compound 0.0316 µM, first compound 3.16 µM
[6] = second compound 0.0316 µM, first compound 10 µM
[7] = second compound 0.1 µM, first compound 0.0316 µM
[8] = second compound 0.1 µM, first compound 0.1 µM
[9] = second compound 0.1 µM, first compound 0.316 µM
[10] = second compound 0.1 µM, first compound 1 µM
[11] = second compound 0.1 µM, first compound 3.16 µM
[12] = second compound 0.1 µM, first compound 10 µM
[13] = second compound 0.316 µM, first compound 0.0316 µM
[14] = second compound 0.316 µM, first compound 0.1 µM
[15] = second compound 0.316 µM, first compound 0.316 µM
[16] = second compound 0.316 µM, first compound 1 µM
[17] = second compound 0.316 µM, first compound 3.16 µM
[18] = second compound 0.316 µM, first compound 10 µM
[19] = second compound 1 µM, first compound 0.0316 µM
[20] = second compound 1 µM, first compound 0.1 µM
[21] = second compound 1 µM, first compound 0.316 µM
[22] = second compound 1 µM, first compound 1 µM
[23] = second compound 1 µM, first compound 3.16 µM
[24] = second compound 1 µM, first compound 10 µM
[25] = second compound 3.16 µM, first compound 0.0316 µM
[26] = second compound 3.16 µM, first compound 0.1 µM
[27] = second compound 3.16 µM, first compound 0.316 µM
[28] = second compound 3.16 µM, first compound 1 µM
[29] = second compound 3.16 µM, first compound 3.16 µM
[30] = second compound 3.16 µM, first compound 10 µM
[31] = second compound 10 µM, first compound 0.0316 µM
[32] = second compound 10 µM, first compound 0.1 µM
[33] = second compound 10 µM, first compound 0.316 µM
[34] = second compound 10 µM, first compound 1 µM
[35] = second compound 10 µM, first compound 3.16 µM
[36] = second compound 10 µM, first compound 10 µM
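Also: spheroids exposed to agents for one week before reading.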
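For viability, T/C in this document: 100% = DMSO vehicle control viability.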

C=CC(=O)N1CCN(c2nc(=O)n(-c3c(C)ccnc3C(C)C)c3nc(-c4c(O)cccc4F)c(F)cc23)C(C)C1 (stereo not drawn) + Cc1[nH]c2ccc(F)cc2c1-c1nc2c3cccnc3c3ncccc3c2[nH]1
> 10 µM: IC50 (second compound 0.0316 µM) | IC50 (second compound 0.1 µM) | IC50 (second compound 0.316 µM) | IC50 (second compound 1 µM) | IC50 (second compound 3.16 µM) | IC50 (second compound 10 µM)
inactive: viability, T/C [1] 90.3% | viability, T/C [2] 101% | viability, T/C [3] 97.7% | viability, T/C [4] 94.3% | viability, T/C [5] 124% | viability, T/C [6] 67.2% | viability, T/C [7] 93% | viability, T/C [8] 106% | viability, T/C [9] 117% | viability, T/C [10] 102% | viability, T/C [11] 102% | viability, T/C [12] 74.8% | viability, T/C [13] 80.9% | viability, T/C [14] 96.9% | viability, T/C [15] 106% | viability, T/C [16] 104% | viability, T/C [17] 100% | viability, T/C [18] 77.9% | viability, T/C [19] 92.9% | viability, T/C [20] 102% | viability, T/C [21] 107% | viability, T/C [22] 110% | viability, T/C [23] 128% | viability, T/C [24] 93.2% | viability, T/C [25] 93.9% | viability, T/C [26] 105% | viability, T/C [27] 98% | viability, T/C [28] 118% | viability, T/C [29] 121% | viability, T/C [30] 79.4% | viability, T/C [31] 98.2% | viability, T/C [32] 98.3% | viability, T/C [33] 118% | viability, T/C [34] 129% | viability, T/C [35] 129% | viability, T/C [36] 101%

Cn1ncnc1[C@H]1c2n[nH]c(=O)c3cc(F)cc(c23)N[C@@H]1c1ccc(F)cc1 + CN(C)c1ccc(Nc2c3ccc(NC(=O)CCN4CCCC4)cc3nc3cc(NC(=O)CCN4CCCC4)ccc23)cc1
> 0.316 µM: IC50 (second compound 0.0316 µM) | IC50 (second compound 0.1 µM) | IC50 (second compound 0.316 µM) | IC50 (second compound 1 µM) | IC50 (second compound 3.16 µM) | IC50 (second compound 10 µM)
inactive: viability, T/C (second compound 0.0316 µM, first compound 0.000999 µM) 99.1% | viability, T/C (second compound 0.0316 µM, first compound 0.00316 µM) 89% | viability, T/C (second compound 0.0316 µM, first compound 0.00999 µM) 104% | viability, T/C [1] 91.1% | viability, T/C (second compound 0.0316 µM, first compound 0.0999 µM) 90.7% | viability, T/C [3] 80% | viability, T/C (second compound 0.1 µM, first compound 0.000999 µM) 92.8% | viability, T/C (second compound 0.1 µM, first compound 0.00316 µM) 98.7% | viability, T/C (second compound 0.1 µM, first compound 0.00999 µM) 90% | viability, T/C [7] 93.9% | viability, T/C (second compound 0.1 µM, first compound 0.0999 µM) 92.2% | viability, T/C [9] 81.4% | viability, T/C (second compound 0.316 µM, first compound 0.000999 µM) 97.5% | viability, T/C (second compound 0.316 µM, first compound 0.00316 µM) 95.7% | viability, T/C (second compound 0.316 µM, first compound 0.00999 µM) 93.3% | viability, T/C [13] 90.6% | viability, T/C (second compound 0.316 µM, first compound 0.0999 µM) 88.2% | viability, T/C [15] 83.7% | viability, T/C (second compound 1 µM, first compound 0.000999 µM) 99.6% | viability, T/C (second compound 1 µM, first compound 0.00316 µM) 90.2% | viability, T/C (second compound 1 µM, first compound 0.00999 µM) 92.1% | viability, T/C [19] 97% | viability, T/C (second compound 1 µM, first compound 0.0999 µM) 89.2% | viability, T/C [21] 73.7% | viability, T/C (second compound 3.16 µM, first compound 0.000999 µM) 87.4% | viability, T/C (second compound 3.16 µM, first compound 0.00316 µM) 77.9% | viability, T/C (second compound 3.16 µM, first compound 0.00999 µM) 76.4% | viability, T/C [25] 67.5% | viability, T/C (second compound 3.16 µM, first compound 0.0999 µM) 74.7% | viability, T/C [27] 66.3% | viability, T/C (second compound 10 µM, first compound 0.000999 µM) 68.1% | viability, T/C (second compound 10 µM, first compound 0.00316 µM) 70.6% | viability, T/C (second compound 10 µM, first compound 0.00999 µM) 70.7% | viability, T/C [31] 60.5% | viability, T/C (second compound 10 µM, first compound 0.0999 µM) 61.4% | viability, T/C [33] 59.4%

COc1ccc([C@@H](O)c2cc(-c3ncnc4cc(N5CCOCC5)ccc34)c(F)cc2Cl)nn1 + Cc1[nH]c2ccc(F)cc2c1-c1nc2c3cccnc3c3ncccc3c2[nH]1
3.7 µM: IC50 (second compound 0.316 µM)
3.52 µM: IC50 (second compound 0.0316 µM)
2.69 µM: IC50 (second compound 0.1 µM)
3.08 µM: IC50 (second compound 10 µM)
1.96 µM: IC50 (second compound 3.16 µM)
3.67 µM: IC50 (second compound 1 µM)
inactive: viability, T/C [1] 93% | viability, T/C [2] 92.3% | viability, T/C [3] 73.7% | viability, T/C [4] 62.3% | viability, T/C [5] 56% | viability, T/C [6] 34.5% | viability, T/C [7] 88.6% | viability, T/C [8] 93% | viability, T/C [9] 69.7% | viability, T/C [10] 66.7% | viability, T/C [11] 47.1% | viability, T/C [12] 34.1% | viability, T/C [13] 82.3% | viability, T/C [14] 95.6% | viability, T/C [15] 83.2% | viability, T/C [16] 68.6% | viability, T/C [17] 54.3% | viability, T/C [18] 34.9% | viability, T/C [19] 88.4% | viability, T/C [20] 112% | viability, T/C [21] 88.5% | viability, T/C [22] 66.6% | viability, T/C [23] 58.4% | viability, T/C [24] 32.2% | viability, T/C [25] 86.1% | viability, T/C [26] 90.5% | viability, T/C [27] 75.9% | viability, T/C [28] 60.4% | viability, T/C [29] 43.3% | viability, T/C [30] 32.2% | viability, T/C [31] 99.4% | viability, T/C [32] 88.6% | viability, T/C [33] 74.9% | viability, T/C [34] 64.3% | viability, T/C [35] 54.6% | viability, T/C [36] 30.4%

CC(C)(O)C1CCC(Nc2ccc3ncc(-c4cccc(C(F)(F)F)c4)n3n2)CC1 (stereo not drawn) + Cc1cnc(CNC(=O)c2c(=O)c3ccc(N4CCCN(C)CC4)nc3n3c2sc2ccccc23)cn1
1.2 µM: IC50 (second compound 0.1 µM)
inactive: viability, T/C [1] 79% | viability, T/C [2] 64.6% | viability, T/C [3] 90.4% | viability, T/C [4] 106% | viability, T/C [7] 57.4% | viability, T/C [8] 57.8% | viability, T/C [9] 56.5% | viability, T/C [10] 58.6% | viability, T/C [13] 36.9% | viability, T/C [14] 30.2% | viability, T/C [15] 34% | viability, T/C [16] 31.8% | viability, T/C [17] 7.87% | viability, T/C [19] 18.4% | viability, T/C [20] 21.1% | viability, T/C [21] 16.7% | viability, T/C [22] 22.3% | viability, T/C [25] 18.8% | viability, T/C [26] 16.6% | viability, T/C [27] 17.7% | viability, T/C [31] 9.8% | viability, T/C [32] 14%
1.68 µM: IC50 (second compound 0.0316 µM)
< 0.0316 µM: IC50 (second compound 0.316 µM) | IC50 (second compound 1 µM) | IC50 (second compound 3.16 µM) | IC50 (second compound 10 µM)
active: viability, T/C [5] 6.53% | viability, T/C [6] 7.58% | viability, T/C [11] 9.19% | viability, T/C [12] 8.3% | viability, T/C [18] 8.39% | viability, T/C [23] 0.25% | viability, T/C [24] 1.56% | viability, T/C [28] 15% | viability, T/C [29] 0.12% | viability, T/C [30] 0.12% | viability, T/C [33] 10.7% | viability, T/C [34] 8.62% | viability, T/C [35] 0.21% | viability, T/C [36] 0.23%

From PubChem BioAssay AID2060495 (Molecular Pharmacology Branch, DTP, NCI, 2025)
